Measurements reported in ChEMBL document CHEMBL4673373, “Discovery and optimization of substituted oxalamides as novel heme-displacing IDO1 inhibitors” (Bioorg Med Chem Lett, 2021).

Columns and labels:
[1] = Metabolic stability in mouse liver microsomes assessed as intrinsic clearance; type: ADME, Microsome; details: read-out: CLH
[2] = Metabolic stability in human liver microsomes assessed as intrinsic clearance; type: ADME, Microsome; details: read-out: CLH
[3] = target: T1, Indoleamine 2,3-dioxygenase 1 (Homo sapiens, UniProt P14902); experiment: Inhibition of IDO1 in human SKOV3 cells; type: cell-based, SK-OV-3
Target sequence in this assay (P14902 whole entry): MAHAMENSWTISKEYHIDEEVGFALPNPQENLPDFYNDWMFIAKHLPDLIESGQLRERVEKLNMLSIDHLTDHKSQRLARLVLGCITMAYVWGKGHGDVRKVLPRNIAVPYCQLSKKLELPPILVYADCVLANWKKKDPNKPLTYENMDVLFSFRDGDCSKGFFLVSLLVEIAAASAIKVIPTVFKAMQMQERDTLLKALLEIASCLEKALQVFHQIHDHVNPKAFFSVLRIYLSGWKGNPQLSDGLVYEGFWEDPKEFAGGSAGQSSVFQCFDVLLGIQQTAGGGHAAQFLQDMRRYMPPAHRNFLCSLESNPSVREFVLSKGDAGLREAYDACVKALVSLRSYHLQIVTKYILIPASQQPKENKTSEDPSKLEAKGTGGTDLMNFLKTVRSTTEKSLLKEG

[4] = target: Tryptophan 2,3-dioxygenase (Homo sapiens, UniProt P48775); experiment: Inhibition of TDO in HEK cells; type: cell-based
[5] = target: T1, Indoleamine 2,3-dioxygenase 1; experiment: Inhibition of IDO1 (unknown origin) by enzymatic assay
Target sequence in this assay (P14902 whole entry): as above

[6] = target: T1, Indoleamine 2,3-dioxygenase 1; experiment: Binding affinity to IDO1 (unknown origin) assessed as change in melting temperature at 5 uM by thermal shift assay
Target sequence in this assay (P14902 whole entry, looked up): as the sequence (P14902 whole entry) above

hERG (KCNH2) [7] = target: T2, hERG (KCNH2) (Homo sapiens, UniProt Q12809); experiment: Inhibition of human ERG at 10 uM relative to control
[8] = Half life in mouse at 10 mg/kg, po; type: ADME, organism-based; details: in vivo
[9] = AUC(0 to 8 hrs) in mouse at 10 mg/kg, po; type: ADME, organism-based; set-up: route oral, time 8 hrs, dose 10 mg/kg; details: in vivo
[10] = Cmax in mouse at 10 mg/kg, po; type: ADME, organism-based; set-up: route oral, dose 10 mg/kg; details: in vivo
hERG (KCNH2) [11] = target: T2, hERG (KCNH2); experiment: Inhibition of human ERG assessed as reduction in channel tail current at 10 uM by patch clamp assay relative to control
Cytochrome P450 2C9 = Cytochrome P450 2C9 (Homo sapiens, UniProt P11712); experiment: Inhibition of CYP2C9 (unknown origin); type: ADME
Cytochrome P450 2C8 = target: T3, Cytochrome P450 2C8 (Homo sapiens, UniProt P10632); experiment: Inhibition of CYP2C8 (unknown origin); type: ADME
T3 sequence (P10632 whole entry): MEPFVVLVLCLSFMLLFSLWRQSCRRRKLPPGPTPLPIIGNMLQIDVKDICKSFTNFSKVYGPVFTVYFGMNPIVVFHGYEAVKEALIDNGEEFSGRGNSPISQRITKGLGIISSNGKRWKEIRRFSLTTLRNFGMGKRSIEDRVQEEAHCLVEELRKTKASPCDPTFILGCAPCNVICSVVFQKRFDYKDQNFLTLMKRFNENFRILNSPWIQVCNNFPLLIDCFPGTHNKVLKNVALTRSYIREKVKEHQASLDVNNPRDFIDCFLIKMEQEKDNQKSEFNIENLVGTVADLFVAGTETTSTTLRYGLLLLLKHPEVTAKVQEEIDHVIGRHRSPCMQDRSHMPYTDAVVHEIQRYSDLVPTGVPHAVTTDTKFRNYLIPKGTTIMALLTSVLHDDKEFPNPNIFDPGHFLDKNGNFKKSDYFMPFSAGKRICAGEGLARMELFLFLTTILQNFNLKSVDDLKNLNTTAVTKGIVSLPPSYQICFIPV

Cytochrome P450 2D6 = Cytochrome P450 2D6 (Homo sapiens, UniProt P10635); experiment: Inhibition of CYP2D6 (unknown origin); type: ADME
[12] = Plasma protein binding in mouse; type: ADME, cell-free; details: read-out: PPB (converted)
[13] = Plasma protein binding in human; type: ADME, cell-free; details: read-out: PPB (converted)
[14] = target: T1, Indoleamine 2,3-dioxygenase 1; experiment: Inhibition of IDO1 in human whole blood; type: tissue-based
Target sequence in this assay (P14902 whole entry): as the sequence (P14902 whole entry) above

Chain of Tryptophan 2,3-dioxygenase (P48775 whole entry): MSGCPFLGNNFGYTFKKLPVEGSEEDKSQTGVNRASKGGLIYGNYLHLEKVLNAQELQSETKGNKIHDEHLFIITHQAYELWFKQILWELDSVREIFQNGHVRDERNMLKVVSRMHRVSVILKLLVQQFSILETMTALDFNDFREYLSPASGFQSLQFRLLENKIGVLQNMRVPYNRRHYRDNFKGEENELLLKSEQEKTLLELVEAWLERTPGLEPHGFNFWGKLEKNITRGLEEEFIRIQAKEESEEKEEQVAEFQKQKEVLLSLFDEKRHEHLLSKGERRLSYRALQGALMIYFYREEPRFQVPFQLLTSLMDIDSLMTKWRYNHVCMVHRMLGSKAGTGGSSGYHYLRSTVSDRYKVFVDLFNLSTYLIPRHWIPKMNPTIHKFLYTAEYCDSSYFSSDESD
T2 sequence (Q12809 whole entry): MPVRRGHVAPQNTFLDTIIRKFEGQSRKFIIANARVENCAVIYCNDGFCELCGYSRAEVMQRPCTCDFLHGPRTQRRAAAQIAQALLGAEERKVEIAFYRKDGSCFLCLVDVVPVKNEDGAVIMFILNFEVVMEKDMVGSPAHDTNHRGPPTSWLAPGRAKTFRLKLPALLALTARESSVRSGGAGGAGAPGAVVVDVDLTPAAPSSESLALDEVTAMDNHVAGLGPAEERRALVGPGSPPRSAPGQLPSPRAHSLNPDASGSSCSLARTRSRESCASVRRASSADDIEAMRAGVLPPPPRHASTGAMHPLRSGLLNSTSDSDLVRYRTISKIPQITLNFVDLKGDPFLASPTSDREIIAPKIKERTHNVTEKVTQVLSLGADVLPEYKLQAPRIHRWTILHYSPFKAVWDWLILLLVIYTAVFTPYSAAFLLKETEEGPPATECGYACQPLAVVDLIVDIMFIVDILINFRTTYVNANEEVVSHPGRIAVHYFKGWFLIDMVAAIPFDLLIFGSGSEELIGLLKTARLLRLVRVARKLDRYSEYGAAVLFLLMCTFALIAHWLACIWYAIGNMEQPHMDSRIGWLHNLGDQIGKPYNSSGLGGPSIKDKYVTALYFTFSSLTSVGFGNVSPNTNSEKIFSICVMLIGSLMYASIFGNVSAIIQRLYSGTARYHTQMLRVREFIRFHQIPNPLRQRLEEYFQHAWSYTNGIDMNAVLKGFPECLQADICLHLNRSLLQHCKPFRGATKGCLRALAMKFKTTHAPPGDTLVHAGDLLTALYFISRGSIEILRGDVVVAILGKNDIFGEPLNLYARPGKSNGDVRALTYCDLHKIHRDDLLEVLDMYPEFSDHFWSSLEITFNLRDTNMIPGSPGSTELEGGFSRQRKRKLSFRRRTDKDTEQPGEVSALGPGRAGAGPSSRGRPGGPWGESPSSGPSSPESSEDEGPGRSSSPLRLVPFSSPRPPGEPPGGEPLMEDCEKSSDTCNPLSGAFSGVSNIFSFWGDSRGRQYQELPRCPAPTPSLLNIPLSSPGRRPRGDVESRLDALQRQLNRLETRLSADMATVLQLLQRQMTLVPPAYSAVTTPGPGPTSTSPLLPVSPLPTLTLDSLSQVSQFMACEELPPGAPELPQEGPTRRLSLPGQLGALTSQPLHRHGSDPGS
Chain of Cytochrome P450 2D6 (P10635 whole entry): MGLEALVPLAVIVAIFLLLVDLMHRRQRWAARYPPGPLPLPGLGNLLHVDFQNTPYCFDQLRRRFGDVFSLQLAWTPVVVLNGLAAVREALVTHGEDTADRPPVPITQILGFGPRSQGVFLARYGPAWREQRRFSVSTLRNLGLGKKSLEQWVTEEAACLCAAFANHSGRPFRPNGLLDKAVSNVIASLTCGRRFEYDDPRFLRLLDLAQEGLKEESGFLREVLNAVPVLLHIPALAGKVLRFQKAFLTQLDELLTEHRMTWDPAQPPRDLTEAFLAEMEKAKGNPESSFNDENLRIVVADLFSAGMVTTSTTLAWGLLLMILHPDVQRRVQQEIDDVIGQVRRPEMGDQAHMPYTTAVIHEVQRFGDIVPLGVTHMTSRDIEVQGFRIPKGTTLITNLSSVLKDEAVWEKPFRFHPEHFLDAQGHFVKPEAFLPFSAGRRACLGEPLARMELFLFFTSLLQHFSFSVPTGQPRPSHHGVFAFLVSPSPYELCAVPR
Chain of Cytochrome P450 2C9 (P11712 whole entry): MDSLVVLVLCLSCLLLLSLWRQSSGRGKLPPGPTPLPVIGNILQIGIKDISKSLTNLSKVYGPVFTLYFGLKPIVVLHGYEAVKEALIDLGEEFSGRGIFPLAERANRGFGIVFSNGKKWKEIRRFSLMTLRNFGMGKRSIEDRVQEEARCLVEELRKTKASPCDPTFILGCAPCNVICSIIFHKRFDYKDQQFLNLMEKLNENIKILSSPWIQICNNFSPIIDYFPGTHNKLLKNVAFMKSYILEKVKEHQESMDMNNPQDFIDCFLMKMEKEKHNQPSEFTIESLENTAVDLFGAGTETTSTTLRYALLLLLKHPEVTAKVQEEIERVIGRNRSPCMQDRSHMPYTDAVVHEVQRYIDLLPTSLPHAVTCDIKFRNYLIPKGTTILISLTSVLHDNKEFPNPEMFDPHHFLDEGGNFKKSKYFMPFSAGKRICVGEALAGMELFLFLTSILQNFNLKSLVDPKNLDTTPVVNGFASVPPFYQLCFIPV

microsomal CLint [1] | microsomal CLint [2] | IC50 [3] | IC50 [4] | SMILES | inhibition at 10 µM (hERG (KCNH2) [7]) | further results
108 µL/min/mg | 10 µL/min/mg | 0.007 µM | 6.7 µM | O=C(Nc1ccc(Cl)cc1F)C(=O)N1CCC(c2ccnc3ccc(F)cc23)CC1 |  | 
 |  | 0.09 µM |  | O=C(Nc1ccc(Cl)cc1)C(=O)N1CCC(c2ccccc2)CC1 |  | IC50 [5]: > 60 µM; ΔTm [6]: 12 °C
 |  | 14 µM |  | O=C(/C(=N/O)Nc1ccc(F)c(Cl)c1)N1CCC(c2ccccc2)CC1 |  | IC50 [5]: > 60 µM
 |  | 0.118 µM | 6.1 µM | N#Cc1ccc2nccc(C3CCN(C(=O)C(=O)Nc4ccc(Cl)cc4)CC3)c2c1 |  | 
52 µL/min/mg | 11.6 µL/min/mg | 0.009 µM | 6.3 µM | O=C(Nc1ccc(Cl)cc1)C(=O)N1CCC(c2ccnc3ccc(F)cc23)C(F)(F)C1 (racemic) | 15% | 
 |  | 0.49 µM |  | O=C(Nc1ccc(Cl)cn1)C(=O)N1CCC2(CC1)COc1ccccc12 |  | 
 |  | 0.433 µM |  | O=C(Nc1ccc(Cl)cn1)C(=O)N1CCC(c2ccnc3ccnn23)CC1 |  | 
18 µL/min/mg | 5 µL/min/mg | 0.05 µM | 15.3 µM | O=C(Nc1ccc(Cl)cc1)C(=O)N1CC[C@@H](c2ccnc3ccc(F)cc23)[C@H](O)C1 (stereo in doubt) | 10% | 
72.9 µL/min/mg | 28.8 µL/min/mg | 0.023 µM | 4.5 µM | CC1(C)CN(C(=O)C(=O)Nc2ccc(Cl)cc2)CCC1c1ccnc2ccc(F)cc12 (racemic) | 71% | 
202 µL/min/mg | 108 µL/min/mg | 0.008 µM | 5.9 µM | O=C(Nc1ccc(Cl)cc1F)C(=O)N1CCCC(c2ccnc3ccc(F)cc23)CC1 (racemic) | 66% | 
36 µL/min/mg | 3.5 µL/min/mg | 0.301 µM | 22 µM | O=C(Nc1ccc(Cl)cn1)C(=O)N1CCC(c2ccnc(C(F)(F)F)c2Cl)CC1 |  | 
55 µL/min/mg | 26 µL/min/mg | 0.019 µM |  | O=C(Nc1ccc(Cl)cc1)C(=O)N1CCC(c2ccnc3cc(F)ccc23)CC1 | 85% | 
97 µL/min/mg | 9 µL/min/mg |  | 6.9 µM | O=C(Nc1ccc(Cl)cc1)C(=O)N1CCC(c2ccnc3ccc(F)cc23)CC1 | 64% | half-life [8]: 1.8 h; AUC(0-t) at 8 h [9]: 19.3 µM·h; Cmax [10]: 5.1 µM; inhibition at 10 µM (hERG (KCNH2) [11]): 70%; IC50 (Cytochrome P450 2C9): 6.1 µM; IC50 (Cytochrome P450 2C8): 4.7 µM; IC50 (Cytochrome P450 2D6): > 10 µM; fraction unbound [12]: 0.011; fraction unbound [13]: 0.003; ΔTm [6]: 14 °C
 |  | 0.7 µM | 37 µM | O=C(Nc1ccc(Cl)cc1)C(=O)N1CCCC2(CC1)COc1cc(C(F)(F)F)ccc12 (centres undefined) |  | 
63 µL/min/mg | 6 µL/min/mg | 0.073 µM | 6.4 µM | O=C(Nc1ccc(Cl)cn1)C(=O)N1CCC2(CC1)COc1cc(C(F)(F)F)ccc12 |  | 
 |  | 3 µM | 37 µM | O=C(Nc1ccc(Cl)cc1)C(=O)N1CC[C@@H](c2ccnc3ccc(F)cc23)[C@@H](O)C1 (stereo in doubt) |  | 

microsomal CLint [1] | microsomal CLint [2] | IC50 [3] | IC50 [4] | SMILES | inhibition at 10 µM (hERG (KCNH2) [7]) | further results
72 µL/min/mg | 11 µL/min/mg | 0.019 µM | 2.5 µM | O=C(Nc1ccc(Cl)cc1)C(=O)N1CCC(c2ccnc3ccc(Cl)cc23)CC1 |  | 
 |  | 24 µM |  | NC(=O)/C(=N/O)Nc1ccc(F)c(Cl)c1 |  | IC50 [5]: 78 µM
254 µL/min/mg | 98 µL/min/mg | 0.005 µM | 16 µM | O=C(Nc1ccc(Cl)cc1F)C(=O)N1CCC=C(c2ccnc3ccc(F)cc23)CC1 |  | 
77 µL/min/mg | 40 µL/min/mg | 0.245 µM |  | O=C(Nc1ccc(Cl)cn1)C(=O)N1CCC(c2cccc(Cl)c2Cl)CC1 |  | 
 |  | 0.34 µM |  | CS(=O)(=O)NCCCNC(=O)/C(=N/O)Nc1ccc(F)c(Br)c1 |  | IC50 [5]: 5 µM
 |  | 0.11 µM | 17.2 µM | O=C(Nc1ccc(Cl)cc1)C(=O)N1CC[C@H](c2ccnc3ccc(F)cc23)[C@H](O)C1 (stereo in doubt) |  | 
 |  | 1.2 µM |  | NS(=O)(=O)NCCCNC(=O)/C(=N/O)Nc1ccc(F)c(Cl)c1 |  | IC50 [5]: 10.3 µM
112 µL/min/mg | 23 µL/min/mg | 0.07 µM | 5.9 µM | O=C(Nc1ccc(Cl)cn1)C(=O)N1CCC(c2ccnc3ccc(F)cc23)CC1 |  | 
16 µL/min/mg | 5.5 µL/min/mg | 0.09 µM | 9.5 µM | O=C(Nc1ccc(C(F)(F)F)cc1)C(=O)N1CCC(c2ccnc3ccc(F)cc23)CC1 | 77% | 
167 µL/min/mg | 20 µL/min/mg | 0.03 µM | 30 µM | O=C(Nc1ccc(Cl)cc1)C(=O)N1CCC2(CC1)COc1cc(C(F)F)ccc12 | 71% | 
76 µL/min/mg | 17 µL/min/mg | 0.021 µM | 5.8 µM | O=C(Nc1ccc(C(F)F)cc1)C(=O)N1CCC(c2ccnc3ccc(F)cc23)CC1 |  | 
 |  | 1.8 µM |  | O=C(Nc1ccc(F)c(Cl)c1)C(=O)N1CCC(c2ccccc2)CC1 |  | IC50 [5]: > 60 µM; ΔTm [6]: 1 °C
386 µL/min/mg | 21.3 µL/min/mg |  |  | C[C@@H](C(=O)Nc1ccc(Cl)cc1)[C@H]1CC[C@@H](c2ccnc3ccc(F)cc32)CC1 |  | AUC(0-t) at 8 h [9]: 9.3 µM·h
28 µL/min/mg | 11 µL/min/mg | 0.036 µM | 5.5 µM | N#Cc1ccc(NC(=O)C(=O)N2CCC(c3ccnc4ccc(F)cc34)CC2)cc1 | 61% | 
14 µL/min/mg | < 1 µL/min/mg |  | 21 µM | O=C(Nc1ccc(Cl)cc1)C(=O)N1CCC2(CC1)COc1cc(C(F)(F)F)ccc12 | 86% | 
17 µL/min/mg | 4 µL/min/mg | 0.0061 µM | 14 µM | O=C(Nc1ccc(Cl)cc1)C(=O)N1CC[C@H](c2ccnc3ccc(F)cc23)[C@@H](O)C1 (stereo in doubt) | 18% | half-life [8]: 1.4 h; AUC(0-t) at 8 h [9]: 27.1 µM·h; Cmax [10]: 10 µM; inhibition at 10 µM (hERG (KCNH2) [11]): 34%; IC50 (Cytochrome P450 2C8): 9.5 µM; fraction unbound [12]: 0.02; fraction unbound [13]: 0.011; IC50 [14]: 0.33 µM; ΔTm [6]: 13 °C
